Read-outs that look alike come from different tables or passages of the source. Values belong to the compound of their own block, whether it stands above or below them.
Key:
[1] = Degradation of LEU and L18FCs and conversion to LEU in human plasma; type: in vitro ADME
[2] = no reference given, cited from earlier work
[3] = no reference given, cited from earlier work; remark: listed apart in the source
[4] = 1 mg intravenous administration; no reference given; cited from earlier work

- metabolised at 840 h, 1 mg/mL [1]: ~45.8%
Compound: CCNC(=O)[C@@H]1CCCN1C(=O)[C@H](CCCNC(=N)N)NC(=O)[C@H](CC(C)C)NC(=O)[C@@H](CC(C)C)NC(=O)[C@H](Cc1ccc(O)cc1)NC(=O)[C@H](CO)NC(=O)[C@H](Cc1c[nH]c2ccccc12)NC(=O)[C@H](Cc1c[nH]cn1)NC(=O)[C@@H]1CCC(=O)N1 [LEU, leuprolide]
- Solubility in phosphate buffered solution (PBS) ([2]; PBS, introduction statement): approximately 10 mg/mL

Compound: CCCCCCCC/C=C\CCCCCCCC(=O)O [Oleic acid]
- log P ([3]; C18 fatty acids, Table 2): 7.64

Compound: CCCCCCCCCCCCCCCCCC(=O)O [Stearic acid]
- log P ([3]; C18 fatty acids, Table 2): 8.23

Compound: leuprolide acetate [LEU acetate]
- Half life [4]: 3 h
- log P ([3]; LEU acetate, Table 1): −2.7–1.07
- Solubility ([2]; in water): ≥ 66.66 mg/mL (52.51 mM) in water

Compound: CCCCC/C=C\C/C=C\CCCCCCCC(=O)O [Linoleic acid]
- log P ([3]; C18 fatty acids, Table 2): 7.05

Source: publication PMC9124699 (International Journal of Nanomedicine, 2022)
